Usually half-life stands for how long it takes for the measured level to halve.

The record followed here is patent US5547970A, “Use of leflunomide for inhibiting tumor necrosis factor alpha” (priority 1993, dated 1996).

One series has as its system TNFalpha. The experiment in a line: Inhibition of lipopolysaccharide-induced synthesis and liberation of TNFalpha in human mononuclear blood cells (sandwich enzyme immuno test). Type of series: cell-based. The settings on record: for activity at 10 µM: 0.01 mmol/l; for activity at 100 µM: 0.1 mmol/l; for inhibitory effect on the synthesis and liberation of cytokines from human blood cells / effect on the TNFalpha level: in words; for effect on the TNFalpha level: experiments in Tab. 1. As to the method: The cell fraction which was visible as a white ring at the phase boundary was removed with the aid of a syringe, diluted 1:1 (v/v) with PM-16 buffer (from Serva Feinbiochemica GmbH & Co. KG, Heidelberg) and then centrifuged once again, as above, for 10 min. […] Using a cell counter (type IT, from Coulter Diagnostics, Krefeld), the cell suspension, which is composed of about 90% lymphocytes and 10% monocytes, was adjusted to about 5 million cells/ml. Cell viability was monitored before and after the inhibition experiments using the known lactate dehydrogenase method.
The synthesis and liberation of cellular TNFalpha was induced by adding a solution of 500 ng of lipopolysaccharide (Salmonella abortus equi, Sigma GmbH, Deisenhofen) in 0.01 ml of dimethyl sulfoxide/water (1:10, v/v) to 0.48 ml of the above-described cell fraction. At the same time, a solution of leflunomide or leflunomide metabolite in 0.01 ml of dimethylsulfoxide (for the final concentration in each case, see Tab. 1) was added to the cell fraction and the mixture was left at 37° C. for 20 h in a commercially available incubator. After cooling down to 0° C., the samples were centrifuged for 1 min. in a bench centrifuge. and in each case 0.025 ml aliquots of the supernatant were examined for their TNFalpha content using a "sandwich" enzyme immuno test kit (from Biermann GmbH, Bad Nauheim) in accordance with the manufacturer's instructions. The control values were determined without the addition of leflunomide or its metabolites and set at 100%. In particular, any possible influence of dimethylsulfoxide on the TNFalpha level was excluded by appropriate comparative measurements.

The test system of another series is mononuclear cells. Put plainly: Metabolism of leflunomide in the test sample (mononuclear cell fraction), HPLC. The settings on record: in words; isolated mononuclear blood cells. Type of series: in vitro ADME, human.
Test in series [1]: as above
The format is in vitro ADME, human. As to conditions: human, mononuclear cells; mononuclear cell fraction, 37° C., HPLC; read-out: half life of metabolism of leflunomide to its metabolites (converted).

Where [2] appears, read: Homo sapiens, LPS 500 ng, 37° C., 20 h, control = 100%, read-out: TNFalpha in the supernatant % +/- standard deviation.

“Also recorded” adds a separate entry of the source.

On to `C/C(O)=C(\C#N)C(=O)Nc1ccc(C(F)(F)F)cc1` [Leflunomide metabolite, N-(4-trifluoromethylphenyl)-2-cyano-3-hydroxycrotonamide], for which, in the series with TNFalpha (setting [2]), the activity at 10 µM stood at 102 ± 12% and the activity at 100 µM was found to be 105%. In addition, in the series on TNFalpha, the “inhibitory effect on the synthesis and liberation of cytokines from human blood cells” value is “does not exhibit this advantageous effect”; the “effect on the TNFalpha level” value is on record as “practically no effect on the TNFalpha level”.
Consider `Cc1oncc1C(=O)Nc1ccc(C(F)(F)F)cc1` [Leflunomide, N-(4-trifluoromethylphenyl)-5-methylisoxazole-4-carboxamide], for which, in the series on TNFalpha (setting [2]), the activity at 10 µM was 100 ± 15% and the activity at 100 µM was 28 ± 5%. Further, the activity at 50 µM in the series with TNFalpha (Homo sapiens, 0.05 mmol/l, LPS 500 ng, 37° C., 20 h, control = 100%, read-out: TNFalpha in the supernatant % +/- standard deviation) was 35%. In addition, in the series with TNFalpha, the “inhibitory effect on the synthesis and liberation of cytokines from human blood cells” value is “strong inhibitory effect”; the “effect on the TNFalpha level” value is reported as “clearly lowered”. Besides, the “metabolism of leflunomide under the experimental conditions” value in the series on mononuclear cells is reported as “did not, to any appreciable extent, metabolize; also recorded: only very slowly; also recorded: no appreciable metabolism”. Besides, the half-life in series [1] is approximately 600 min.
